Our source for the IC50 and EC50 values is patent US10414769B2, “5,8-dimethyl-9-phenyl-5,8-dihydro-6H-pyrazolo[3,4-h]quinazolin-2-yl)-(1H-pyrazol-3-yl)-amines as IGF-1R/IR inhibitors” (Boehringer Ingelheim International GmbH, priority 2015, dated 2019).

For test [1], the target named is T1, human IGF-1R (Homo sapiens, UniProt P08069).
T1 construct: human IGF-1R (amino acids 964-1370) is expressed as a fusion protein; made in house; host or cells: High Five insect cells (Invitrogen)
The experiment in a line: Insulin-like growth factor-1 receptor (IGF-1R)-kinase assay (DELFIA). The class given is biochemical. As to conditions: inhibition of IGF-1R-kinase activity. Here is the method:
Insulin-Like Growth Factor-1 Receptor (IGF-1R)-Kinase Assay
The kinase activity is measured by DELFIA® assay (dissociation-enhanced lanthanide fluorescence immunoassay, Perkin Elmer). The cytoplasmic kinase domain of human IGF-1R (amino acids 964-1370) is expressed as a fusion protein with a glutathione-S-transferase tag (IGF-1R-GST) in High Five™ Cells (Invitrogen). Enzyme activity is measured in the presence of substances and a control substance. Poly-glutamate-tyrosine peptide (pEY, Sigma Aldrich) and biotinylated pEY (bio-pEY) are used as reaction substrates.
10 μL of substance in 25% DMSO are mixed with 30 μL of IGF-1R-GST solution (67 mM HEPES pH 7.4, 15 μg/mL pEY, 1.7 μg/mL bio-pEY, 13.3 mM MgCl2, 3.3 mM dithiothreitol, 0.0033% Brij 35, 2 ng IGF-1R-GST) in 96-well plates. The reactions are started with 10 μL of a 750 μM ATP solution. After 40 min at RT the reactions are stopped with 50 μL of stop solution (250 mM EDTA, 20 mM HEPES pH 7.4). 90 μL from each reaction are transferred onto streptavidin-coated 96-well plates. After 120 min incubation at RT the plates are washed three times with 200 μL phosphate-buffered saline (PBS) per well. The plates are incubated for 60 min with 100 μL of europium-coupled antibody against phospho-tyrosine (diluted 1/2000 in Perkin Elmer DELFIA assay buffer) per well. The plates are washed three times with 200 μL per well of DELFIA washing buffer (Perkin Elmer). 100 μL DELFIA Enhancement Solution (Perkin Elmer) is added to each well, and the plates are incubated for 10 min. The fluorescence signal is measured with a Wallac Victor TRF Reader. IC50 values for the inhibition of the IGF-1R-kinase activity are calculated using the programme GraphPad (Version 3.0).

In test [2] the test system is TC-71 (EWING'S sarcoma) cells. The experiment in a line: Cell proliferation assay TC-71 (Alamar Blue). The class given is cell-based. As to conditions: anti-proliferative effect, TC-71 cells, 72 h; read-out: TC71 EC50. How it is done:
(§1) Cell Proliferation Assays
(§2) Compounds were tested for their anti-proliferative effects in the TC-71 (EWING'S sarcoma) and HCT 116 (colorectal carcinoma) cancer cell lines in vitro. Published scientific data has described that interference with the IGF-1R signaling pathway reduces the proliferation of TC-71 cells (Manara et al, 2007). Therefore TC-71 cells served as a positive control cell line for monitoring the activity of compounds against IGF-1R-mediated cell proliferation. […] Therefore the HCT 116 cell line served as a negative control.
(§3) 2000 TC-71 cells or 1000 HCT 116 cells were seeded per well in 180 μL IMDM+10% foetal calf serum (FCS)+penicillin/streptomycin into 96-well microtitre plates. The plates were placed in a cell culture incubator (37° C. in a humidified atmosphere of […]/5% CO2) overnight. The following day, serial dilutions of compounds, prepared in duplicates, were transferred onto the cell layers (controls without compound). The cells were cultivated for a further 72 h in the cell culture incubator. 20 μL of Alamar Blue™ (Serotec Ltd, Dusseldorf, Germany) was added to each well and the plates incubated for 7 h in the cell culture incubator. Fluorescence (extinction wavelength of 544 nm and emission at 590 nm) was then measured and the normalized data fitted by iterative calculation with a sigmoidal curve analysis program (Graph Pad Prism) with a variable Hill slope to determine the EC50 values.
(The colour change of resazurin is a common sign of viable cells or microbes.)

The test system of test [3] is HCT 116 (colorectal carcinoma) cells. Description: Cell proliferation assay HCT 116 (Alamar Blue). The test is classed as cell-based. As to conditions: Homo sapiens; anti-proliferative effect, HCT 116 cells (negative control line), 72 h. How it is done: as §1, §2, §3

SMILES strings stand for the structures.

T1 sequence (P08069 964-1367 limits assumed): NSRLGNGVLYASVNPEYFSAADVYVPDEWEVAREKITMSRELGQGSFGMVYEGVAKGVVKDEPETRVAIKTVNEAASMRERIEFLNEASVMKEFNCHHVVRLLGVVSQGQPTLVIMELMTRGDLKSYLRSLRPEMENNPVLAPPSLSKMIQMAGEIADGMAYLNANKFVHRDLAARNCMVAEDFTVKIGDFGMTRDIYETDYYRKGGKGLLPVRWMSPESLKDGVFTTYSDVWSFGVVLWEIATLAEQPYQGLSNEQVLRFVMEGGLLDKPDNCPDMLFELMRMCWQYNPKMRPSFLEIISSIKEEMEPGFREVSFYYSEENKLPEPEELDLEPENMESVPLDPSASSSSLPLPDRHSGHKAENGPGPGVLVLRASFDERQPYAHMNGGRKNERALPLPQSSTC

In the case of `C[C@@H]1Cc2nn(C)c(-c3ccccc3)c2-c2nc(Nc3ccn(CCN4CCN(CC(C)(C)O)C(=O)C4)n3)ncc21` [Compound I-5], the IC50 in test [1] was 4.8 nM. For the same compound, the concentration for a half-maximal effect (EC50) in test [2] was 4 nM; in test [3], greater than 2500 nM.
In test [1], `C[C@@H]1Cc2nn(C)c(-c3ccccc3)c2-c2nc(Nc3ccn(CCN4CCN(CC(=O)OC5CCOC5)CC4)n3)ncc21` (stereo partly drawn) [Compound I-6] gave an IC50 of 1.1 nM. In addition, the EC50 in test [2] was 5 nM; in test [3], greater than 2500 nM.
For `CC(C(=O)OC[C@H]1CCCN1)N1CCN(CCn2ccc(Nc3ncc4c(n3)-c3c(nn(C)c3-c3ccccc3)C[C@H]4C)n2)CC1` (stereo partly drawn) [Compound I-4], in that order: 1.5 nM, 6.82 nM and greater than 2500 nM.
For `C[C@@H]1Cc2nn(C)c(-c3ccccc3)c2-c2nc(Nc3ccn(CCN4CCN(CCO)CC4)n3)ncc21` [Compound I-10], in that order: 2.2 nM, 5.93 nM and greater than 2500 nM.

What is called IC50 is the concentration that inhibits the measured activity by half. The EC50 is the midpoint of the concentration-response curve.
